Assay results: PMC7024213, “Absolute Configuration of Mycosporine-Like Amino Acids, Their Wound Healing Properties and In Vitro Anti-Aging Effects” (Marine Drugs, 2019)
pIC50: −log10 of the molar value. Counter-ions that a name gives are not always drawn. Like-named read-outs stand apart in the source and are kept apart here.

Tests used:
collagenase type V [1] = experiment: Collagenase inhibition assay (spectrofluorometric); format: biochemical; conditions: for IC50: collagenase type V, MMP-2 fluorogenic substrate, 1% DMSO, 95% confidence interval in brackets, read-out: Collagenase Inhibition IC50 µM (CI 95 ±)
Experimental: The assay was carried out according to a previously published protocol by Hartmann et al.. All required reagents for the assay were purchased from Sigma Aldrich. Both enzyme (collagenase type V; C-9263) and substrate (SCP0192 MMP-2 substrate, Sigma Aldrich) were dissolved in the reagent buffer (Tris–HCl; 10 mM pH 7.3) and diluted from stock solutions to 100 μg/mL (initial) enzyme concentration and 55.55 μg/mL (initial) substrate concentration prior to use. Test samples and standard inhibitor phosphoramidon disodium salt used as positive control were dissolved in H2O/DMSO, always maintaining a final DMSO concentration of 1% in each well. The final reaction volume of 100 μL was composed of 25 μL buffer solution, and 25 μL sample/positive controls which were added first followed by 25 μL enzyme. This mixture was incubated for 10 min at 37 °C. Finally, 25 µL of substrate were added to initiate the readout reaction. The substrate which carries a fluorogenic residue (7-methoxycoumarin-4-yl acetic acid) is continuously dissipated by the enzyme collagenase. Measurements are taken after 30 min at an excitation wavelength of λ = 320 nm and λ = 400 nm emission wavelengths in a 96-well microplate format using an Infinite F 200 pro microplate reader equipped with filter-based technology (Tecan, Männedorf, Switzerland). An untreated control group containing 1% DMSO without sample was set to 100% enzyme activity. Blank wells without enzyme were measured accordingly and subtracted from the fluorescent units of each well. Two positive controls were used. First, the well-established phosphoramidon disodium salt and second, to include natural product based inhibitors, rutin and EGCG were used. Measurements were performed in triplicates using 96 well plates, and each substance was measured in three independent experiments. […] IC50 values were calculated by fitting data (log (Inhibitor) vs. response–variable slope) using GraphPad Prism (GraphPad Software, San Diego, CA, USA).
Statistics: The data were analyzed at least in three independent experiments and were expressed as mean ± SEM. A Shapiro Wilk normality test was performed to confirm the Gaussian distribution of the data. One-way ANOVA, followed by a Dunett’s multiple comparison test in GraphpadPrism 5 were performed to clarify statistical significance. p-Value of ≤ 0.05 was considered statistically significant.

pentosidine-like AGEs [2] = experiment: Inhibition of advanced glycation end products (AGEs) formation, BSA/D-ribose fluorescence assay; format: biochemical; conditions: for pIC50: BSA 10 mg/mL, D-ribose 0.5 M, 37 °C, 24 h
Experimental: The anti-AGE assay was carried out following the methodology previously reported by Séro et al.. Briefly, the samples (1 µM to 3 mM) were incubated with D-ribose (0.5 M) and bovine serum albumin (BSA, 10 mg/mL) in a Na-phosphate buffer (50 mM pH 7.4); the solutions were incubated in black microtiter plates (96 wells) at 37 °C for 24 h in a closed system before AGE fluorescence measurement. Both vesperlysines-like (λexc370 nm; λem440 nm) and pentosidine-like (λexc335 nm; λem385 nm) AGE fluorescence were measured using a microplate spectrofluorometer Infinite M200 (Tecan, Lyon, France). To avoid quenching phenomena, the fluorescence resulting from the incubation in the same conditions of BSA (10 mg/mL) and the tested extract (1 µM to 3 mM) was subtracted from each measurement. The negative control, i.e., 100% inhibition of AGEs formation, consisted of wells with only BSA. A control, i.e., no inhibition of AGEs formation, consisted of wells with BSA (10 mg/mL) and D-ribose (0.5 M). The final volume assay was 100 µL. The percentage of AGE formation was calculated as follows for each extract concentration: AGEs (%) = (fluorescence intensity [sample]−fluorescence [blank of sample]/fluorescence intensity [control]−fluorescence [blank of control]) × 100.
Dose-effect curves were best fitted with a sigmoidal dose-response equation [four parameters logistic model: bottom and top plateaus, the EC50, and the slope factor (Hill’s slope)] using Sigma Plot 14.0 software, which enabled calculation of the IC50 values. The acceptance criteria were established by the correlation coefficient (r²) > 0.97. Results were compared with those of reference products, aminoguanidine and rutin.

pentosidine-like AGEs [3] = conditions: cited from earlier work
HaCaT keratinocytes = experiment: Wound scratch assay; format: cell-based, human; conditions: 1 µM and 10 µM, after 24 h, p < 0.05 vs untreated control
Experimental: HaCaT keratinocytes were provided by Prof. Dr. Norbert E. Fusenig (DKFZ, Heidelberg, Germany) and cultivated in a DMEM medium, supplemented with FCS (10%), penicillin/streptomycin solution (1%), and non-essential amino acids (1%) (PAA, Pasching, Austria). HaCaT keratinocytes were cultivated at 37 °C, 5% CO2.
The evaluation of 4 different MAAs (compounds 1, 2, 4, and 8) on the migration of HaCaT cells was determined as described by Balekar et al.. HaCaT cells were plated into a 12-well plate at a concentration of 1 × 10^5 cells containing Dulbecco’s modified Eagle’s medium culture medium (DMEM) supplemented with 10% fetal calf serum (FCS) and incubated at 37 °C in a humidified 5% CO2 atmosphere until confluence has been reached. After attachment of the cells to the plate, medium was removed and the adherent cell layer was scratched with a sterile pipette tip. Cellular debris was removed by washing off with PBS (2 × 1 mL). Subsequently, the cells were treated with DMEM supplemented with 10% FCS containing the individual MAA test compounds at the concentrations of (10 µM to 1 µM). Control cells received only fresh DMEM +10% FCS, cells used as the positive control were treated with fresh DMEM + 20% FCS. Following, the cell cultures were incubated at […] in a humidified 5% CO2 atmosphere. Finally, the area of each scratch was determined by quantitative imaging at time 0 (just after scratching cell monolayers) and after 24 h treatment with the compounds (Leica DFC300, Wetzlar Germany; 40× magnification). The captured images were then analyzed using Image J software.
The migration rate can be expressed as the percentage of area reduction or wound closure:(2) Wound closure %=100 [Area (t0)−Area( t24)/Area (t0)]
Statistical analysis: The data were analyzed in three independent experiments and were expressed as mean ± SEM. One-way ANOVA, followed by an unpaired t-test to compare control group and treated group was performed. P-value of ≤ 0.05 was considered as statistically significant.

collagenase = conditions: cited from earlier work
[4] = test system: hen egg white lysozyme (HEWL); conditions: read-out: Inhibition of glycation-dependent cross-linking of HEWL, IC50; literature finding, reference not given; cited from earlier work
collagenase type V [5] = biological target: collagenase type V; design: method as in Hartmann et al. [18]; conditions: collagenase results previously published; 95% confidence interval in brackets; ref Hartmann et al. [18]; read-out: Collagenase Inhibition IC50 µM (CI 95 ±); cited from earlier work
[6] = test system: UV-A induced MMPs such as MMP-1 and elastase; design: method as in Ryu et al. [20]; conditions: concentrations at 40 µM; ref Ryu et al. [20]; cited from earlier work
[7] = concentration range 1 to 350 µM
[8] = read-out: Collagenase inhibition IC50

COC1=C(NCC(=O)O)CC(O)(CO)CC1=NCCO (stereo not drawn) [asterina-330]
Collagenase inhibition (collagenase type V [1]; [7]): good inhibition

COC1=C(NCCC(=O)O)C[C@@](O)(CO)CC1=N[C@H](C(=O)O)[C@@H](C)O [Compound 12, bostrychine-F]
pIC50 (pentosidine-like AGEs [2]): 3.70
IC50 (collagenase type V [1]): 90 µM

O=c1c(O)c(-c2ccc(O)c(O)c2)oc2cc(O)cc(O)c12 [quercetin]
AGEs inhibition (pentosidine-like AGEs [3]): strong AGEs inhibitor

COC1=C(N[C@@H](C)C(=O)O)C[C@](O)(CO)CC1=NCC(=O)O [Compound 4, mycosporine-alanine-glycine]
Migration / wound closure in scratch assay (words) (HaCaT keratinocytes): significant migration and narrowing of the scratch area
pIC50 (pentosidine-like AGEs [2]): 4.12
IC50 (collagenase type V [1]): 158 µM

COC1=C(N[C@H](C(=O)O)[C@@H](C)O)C[C@](O)(CO)CC1=N[C@@H](CCC(N)=O)C(=O)O [Compound 8, bostrychine-B]
Migration / wound closure in scratch assay (words) (HaCaT keratinocytes): significant migration and narrowing of the scratch area
Migration / wound closure in scratch assay (words) (HaCaT keratinocytes; listed as bostrychine B): slightly higher wound closure ability
IC50 (collagenase type V [1]): 104 µM

COC1=C(NCC(=O)O)CC(O)(CO)CC1=N (stereo not drawn) [palythine]
Anti-AGEs activity (pentosidine-like AGEs [2]; concentration range 1 µM to 3 mM): weakest effect

O=C(O[C@@H]1Cc2c(O)cc(O)cc2O[C@@H]1c1cc(O)c(O)c(O)c1)c1cc(O)c(O)c(O)c1 [Epigallocatechingalleate, reference compound]
pIC50 (collagenase; used as positive control in many publications, read-out: Collagenase inhibition IC50 (published values)): ~3.66
IC50 (collagenase type V [1]): 46.6 µM

N=C(N)NN [Aminoguanidine, reference compound]
pIC50 (pentosidine-like AGEs [2]): 2.85

CNC1=C(OC)C(=N[C@H](C(=O)O)[C@@H](C)O)C[C@](O)(CO)C1 [Compound 3, mycosporine-methylamine-threonine]
pIC50 (pentosidine-like AGEs [2]): 3.82
IC50 (collagenase type V [1]): 250 µM

O=C1c2c(O)cc(O)cc2O[C@H](c2ccc(O)c(OC3O[C@H](CO)[C@@H](O)[C@H](O)[C@H]3O)c2)[C@H]1O (stereo partly drawn) [taxifolin 3′-O-glucopyranoside]
pIC50 (collagenase; [8]): 3.85

COC1=C(NC[C@@H](C)O)C[C@](O)(CO)CC1=NCC(=O)O [Compound 5, aplysiapalythine A]
pIC50 (pentosidine-like AGEs [2]): 3.40
IC50 (collagenase type V [1]): 80.7 µM

CC(C)C[C@H](NP(=O)(O)O[C@@H]1O[C@@H](C)[C@H](O)[C@@H](O)[C@H]1O)C(=O)N[C@@H](Cc1c[nH]c2ccccc12)C(=O)O [Phosphoramidon, phosphoramidon disodium salt, reference compound]
IC50 (collagenase type V [1]): 1.9 µM

COC1=C(NCC(=O)O)CC(O)(CO)CC1=NCC(=O)O (stereo not drawn) [mycosporine-2-glycine]
pIC50 [4]: 2.79

COC1=C(N[C@H](C(=O)O)[C@@H](C)O)C[C@](O)(CO)CC1=N[C@@H](CCC(=O)O)C(=O)O [Compound 10, bostrychine-D]
pIC50 (pentosidine-like AGEs [2]): 4.07
IC50 (collagenase type V [1]): 118 µM

COC1=C(NCC(C)O)C[C@](O)(CO)CC1=NCC(=O)O (stereo partly drawn) [aplysiapalythine A]
Collagenase inhibition (collagenase type V [1]; [7]): good inhibition

O=C1c2c(O)cc(O)cc2OC(c2ccc(O)c(O)c2)C1O (stereo not drawn) [taxifolin]
pIC50 (collagenase; [8]): 3.71

COC1=C(NCC(=O)O)C[C@@](O)(CO)CC1=O [mycosporine-glycine]
Collagenase inhibition (collagenase type V [1]; [7]): very pronounced inhibition

COC1=C(N[C@@H](CO)C(=O)O)C[C@](O)(CO)CC1=NCC(=O)O [Compound 1, Shinorine]
IC50 (collagenase type V [5]): 104 µM
Migration / wound closure in scratch assay (words) (HaCaT keratinocytes): significant migration and narrowing of the scratch area
pIC50 (pentosidine-like AGEs [2]): 3.99

COC1=C(N[C@H](C(=O)O)[C@@H](C)O)C[C@](O)(CO)CC1=NCC(=O)O [Compound 2, porphyra-334]
IC50 (collagenase type V [5]): 106 µM
Migration / wound closure in scratch assay (words) (HaCaT keratinocytes): significant migration and narrowing of the scratch area
Inhibition of UV-A induced MMPs such as MMP-1 and elastase [6]: concentration-dependent inhibition
Procollagen production [6]: increase in procollagen production
pIC50 (pentosidine-like AGEs [2]): 4.05

COC1=C(NCCO)C[C@](O)(CO)CC1=NCC(=O)O [Compound 6, asterina-330]
pIC50 (pentosidine-like AGEs [2]): 3.90
IC50 (collagenase type V [1]): 70.9 µM

OC[C@H]1O[C@@H](Oc2cc(O)cc(/C=C/c3ccc(O)c(O)c3)c2)[C@H](O)[C@@H](O)[C@@H]1O [E-astringin]
pIC50 (collagenase; [8]): 3.90

OC[C@H]1O[C@@H](Oc2cc(O)cc(/C=C/c3ccc(O)cc3)c2)[C@H](O)[C@@H](O)[C@@H]1O [E-piceid]
pIC50 (collagenase; [8]): 3.59

COC1=C(NC[C@@H](C)O)C[C@@](O)(CO)CC1=N[C@@H](CCC(=O)O)C(=O)O [Compound 11, bostrychine-E]
pIC50 (pentosidine-like AGEs [2]): 3.82
IC50 (collagenase type V [1]): 163 µM

C[C@@H]1O[C@@H](OC[C@H]2O[C@@H](Oc3c(-c4ccc(O)c(O)c4)oc4cc(O)cc(O)c4c3=O)[C@H](O)[C@@H](O)[C@@H]2O)[C@H](O)[C@H](O)[C@H]1O [Rutin, reference compound]
pIC50 (pentosidine-like AGEs [2]): 4.07
Collagenase inhibition (collagenase type V [1]; at 100 µM, 1% DMSO control group set to 100% enzyme activity): 100 µM -> 52% Inhibition *
